Reference: US7427623B2, “4-Amino-2,3-disubstituted thieno[2,3-d]pyrimidines and pharmacetical compositions thereof” (SmithKline Beecham Corporation, priority 2001, dated 2008)

Legend:
[1] = biological target: T1, GST-TIE2 (intracellular domains of human TIE2) (Homo sapiens, UniProt Q02763); assay: TIE-2 Enzyme assay (TIE2-E), LANCE method; assay type: biochemical; settings: GST-TIE2, 80 uM ATP, D1–15 peptide; for IC50: read-out: TIE2-E pIC50 (converted)
T1 construct: made in house
Description: TIE-2 Enzyme assay (TIE2-E)
Preactivated GST-TIE2 was incubated for 30 mins at room temperature in 96 well plates with 1 uM D1–15 peptide, 80 uM ATP, 10 mM MgCl2, 0.1 mg/ml BSA and the test compound (diluted from a 10 mM stock in DMSO, final DMSO concentration was 2.4%) in 1 mM HEPES (pH 7.4). The reaction was stopped by the addition of EDTA (final concentration 45 mM). Streptavidin linked-APC (allophycocyanin, Molecular Probe) and Europium-labeled anti-phosphorylated tyrosine antibody (Wallac) were then added at the final concentration of 17 ug/well and 2.1 ug/well, respectively. The APC signal was measured using an ARVO multilabel counter. (Wallac Berthold Japan). The percent inhibition of activity was calculated relative to blank control wells. […] The IC50 values were converted to pIC50 values, i.e., −log IC50 in Molar concentration.

[2] = biological target: T2, TIE2 intracellular domain/c-fms extracellular domain (TIE2/c-fms) chimeric protein (Homo sapiens, UniProt Q02763); assay: TIE-2 Autophosphorylation Assay (TIE2-C), ELISA; assay type: cell-based; settings: TIE2/c-fms expressing mouse 3T3 cells, MCSF activation; for IC50: read-out: TIE2-C pIC50 (converted)
T2 construct: TIE2 intracellular domain/c-fms extracellular domain (TIE2/c-fms) chimeric protein; expressed in transfected cells; host or cells: mouse 3T3 cells
Description: TIE-2 Autophosphorylation Assay (TIE2-C)
The TIE-2 autophosphorylation assay used an ELISA method and a TIE2 intracellular domain/c-fms extracellular domain (TIE2/c-fms) chimeric protein expressing mouse 3T3 cells. This assay measured the autophosphorylation level of TIE2 protein expressed in cells. The cells were cultured in high glucose DMEM (Sigma) containing 10% serum at 37° C. in a humidified 10% CO2, 90% air incubator. The test compound (diluted from a 10 mM stock in DMSO, final DMSO concentration was 0.1%) was incubated with TIE2/c-fms expressing cells for 1 hr in serum free DMEM in 96 well plates followed by the activation of TIE2/c-fms receptor using c-fms ligand, MCSF (macrophage colony stimulating factor). […] The cell extracts were transferred into Rat anti-c-fms antibody coated 96 well plates and incubated for 12 hrs at 4 degrees. The extracts were removed by aspiration and the plate was incubated with biotinylated anti-phosphotyrosine antibody, PT66 (Sigma) and then with HRP (Horseradish Peroxidase)-labeled streptavidin (PIERCE). The optical density at 450 nm derived from HRP catalyzed TMB was measured with an ARVO multilabel counter. (Wallac Berthold Japan). The percent inhibition of activity was calculated relative to blank control wells. […] The IC50 values were converted to pIC50 values, i.e., −log IC50 in Molar concentration.

GST-VEGFR2 = biological target: T3, GST-VEGFR2 (Homo sapiens, UniProt P35968); assay: VEGF-R2 Enzyme Assay (VEGF-E), LANCE method; assay type: biochemical; settings: GST-VEGFR2, 75 uM ATP; for IC50: read-out: VEGF-E pIC50 (converted)
T3 construct: GST-VEGFR2, baculovirus expressed recombinant constructs of the intracellular domains of human TIE2 tagged by GST; made in house
Description: VEGF-R2 Enzyme Assay (VEGF-E)
The VEGF enzyme assay used the LANCE method (Wallac) and GST-VEGFR2, baculovirus expressed recombinant constructs of the intracellular domains of human […] tagged by GST. […] The reaction was stopped by the addition of EDTA (final concentration 50 mM). […] The APC signal was measured using an ARVO multilabel counter (Wallac Berthold, Japan). The percent inhibition of activity was calculated relative to blank control wells. […] The IC50 values were converted to pIC50 values, i.e., −log IC50 in Molar concentration.

[3] = system: Human umbilical cord endothelial cells (HUVEC); assay: VEGF-Driven Cellular Proliferation Assay, BrdU Incorporation Assay (VEGF-C); assay type: cell-based; settings: for IC50: Homo sapiens, read-out: VEGF-C pIC50 (converted)
Description: VEGF-Driven Cellular Proliferation Assay. BrdU Incorporation Assay (VEGF-C)
Human umbilical cord endothelial cells (HUVEC, Clonetics, CC2519) were passaged in Type I collagen-coated 100-mm petridishes in EGM-MV medium (Clonetics, CC3125) at 37 C in a humidified 5% CO2, 95% air incubator. […] After incubation overnight at 37° C., the media were replaced with 100 ul of M199 serum-free medium containing compounds at various concentrations with 0.6% DMSO and gentamicin. The compounds were diluted in serum-free M199 medium from 10 mM stock solutions prepared in 100% DMS0. […] The cells were pulsed with bromodeoxyuridine (BrdU at 10 uM in serum-free M199) at 37° C. for an additional 24 h. […] The optical density at 450 nm was measured with a multilabel counter (ARVO SX, Wallac). The percent inhibition of cell growth was calculated relative to blank control wells. […] The IC50 values were converted to pIC50 values, i.e., −log IC50 in Molar concentration.

T2 sequence (Q02763 770-1124 limits assumed, change not shown): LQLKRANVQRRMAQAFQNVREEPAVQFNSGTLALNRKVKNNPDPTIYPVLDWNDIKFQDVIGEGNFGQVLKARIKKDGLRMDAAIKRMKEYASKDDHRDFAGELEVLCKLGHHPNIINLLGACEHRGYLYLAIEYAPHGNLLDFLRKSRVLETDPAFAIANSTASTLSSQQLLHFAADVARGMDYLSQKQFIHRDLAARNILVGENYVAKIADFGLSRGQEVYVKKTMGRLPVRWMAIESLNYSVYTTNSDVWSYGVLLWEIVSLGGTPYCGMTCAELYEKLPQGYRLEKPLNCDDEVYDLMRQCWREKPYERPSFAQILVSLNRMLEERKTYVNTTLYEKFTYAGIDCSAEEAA
T2 sequence (P07333 20-517 partner limits assumed): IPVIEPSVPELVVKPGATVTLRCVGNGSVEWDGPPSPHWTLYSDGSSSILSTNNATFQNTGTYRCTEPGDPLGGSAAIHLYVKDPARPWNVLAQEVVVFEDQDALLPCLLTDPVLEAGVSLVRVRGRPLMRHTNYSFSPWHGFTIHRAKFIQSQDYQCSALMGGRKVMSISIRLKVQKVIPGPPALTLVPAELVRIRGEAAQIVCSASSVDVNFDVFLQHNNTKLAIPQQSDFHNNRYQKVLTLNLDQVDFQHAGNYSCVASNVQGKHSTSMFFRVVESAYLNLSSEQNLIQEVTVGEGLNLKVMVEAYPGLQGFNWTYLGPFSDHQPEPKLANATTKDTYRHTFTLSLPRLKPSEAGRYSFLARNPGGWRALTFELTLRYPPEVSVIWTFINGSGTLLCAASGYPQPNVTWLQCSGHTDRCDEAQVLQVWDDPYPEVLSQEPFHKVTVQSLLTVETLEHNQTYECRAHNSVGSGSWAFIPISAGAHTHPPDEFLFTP
T2 sequence (P09603 33-190 partner limits assumed): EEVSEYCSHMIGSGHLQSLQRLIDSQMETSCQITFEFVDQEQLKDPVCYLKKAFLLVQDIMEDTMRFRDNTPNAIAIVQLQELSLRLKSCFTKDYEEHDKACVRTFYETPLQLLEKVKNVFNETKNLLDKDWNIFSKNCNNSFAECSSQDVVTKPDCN
T1 sequence (Q02763 762-1104): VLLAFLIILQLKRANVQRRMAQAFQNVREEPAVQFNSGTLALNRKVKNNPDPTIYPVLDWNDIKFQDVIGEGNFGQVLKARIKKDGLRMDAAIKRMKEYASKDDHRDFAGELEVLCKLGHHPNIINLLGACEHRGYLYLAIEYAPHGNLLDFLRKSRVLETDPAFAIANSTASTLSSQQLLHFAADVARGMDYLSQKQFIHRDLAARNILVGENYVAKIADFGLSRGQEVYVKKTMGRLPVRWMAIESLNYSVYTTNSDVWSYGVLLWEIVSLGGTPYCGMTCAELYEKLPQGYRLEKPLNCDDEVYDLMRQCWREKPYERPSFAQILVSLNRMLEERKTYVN
T3 sequence (P35968 786-1356 limits assumed): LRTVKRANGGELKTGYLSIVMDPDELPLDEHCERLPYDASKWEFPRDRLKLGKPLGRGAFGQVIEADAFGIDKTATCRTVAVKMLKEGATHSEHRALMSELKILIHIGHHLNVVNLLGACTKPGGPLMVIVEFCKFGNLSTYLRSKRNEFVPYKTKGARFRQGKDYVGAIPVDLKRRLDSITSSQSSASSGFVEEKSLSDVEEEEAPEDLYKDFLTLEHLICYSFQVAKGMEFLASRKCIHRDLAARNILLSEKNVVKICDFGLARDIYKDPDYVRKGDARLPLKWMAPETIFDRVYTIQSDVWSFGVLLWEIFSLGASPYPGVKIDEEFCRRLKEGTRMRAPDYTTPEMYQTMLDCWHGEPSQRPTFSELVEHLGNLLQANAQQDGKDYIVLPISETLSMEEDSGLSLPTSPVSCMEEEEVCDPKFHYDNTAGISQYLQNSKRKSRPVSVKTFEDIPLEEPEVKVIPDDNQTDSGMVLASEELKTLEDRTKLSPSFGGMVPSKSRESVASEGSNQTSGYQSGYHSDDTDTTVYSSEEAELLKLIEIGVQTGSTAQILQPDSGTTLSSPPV

Row | Compound | TIE2-E pIC50 [1] | TIE2-C pIC50 [2] | VEGF-E pIC50 (GST-VEGFR2) | IC50 [1] | IC50 [2] | IC50 (GST-VEGFR2) | VEGF-C pIC50 [3] | IC50 [3]
1 | 4-Amino-2-(4-amino-3-(N-methylcarbamoyl)phenyl)-3-(4-methoxyphenyl)furo[2,3-d]pyrimidine [Example 147] | + (+ = pIC50 of 5.0–6.0) | ++ (++ = pIC50 of 6.0–7.0) | ++ (++ = pIC50 of 6.0–7.0) | – | – | – | + (+ = pIC50 of 5.0–6.0) | –
2 | 4-Amino-2-(4-fluoro-3-(methylsulfonylamino)phenyl)-3-(4-methoxyphenyl)furo[2,3-d]pyrimidine [Example 178] | + (+ = pIC50 of 5.0–6.0) | ++ (++ = pIC50 of 6.0–7.0) | ++ (++ = pIC50 of 6.0–7.0) | – | – | – | + (+ = pIC50 of 5.0–6.0) | –
3 | 4-Amino-2-(5-indolyl)-3-(4-(3-pyridyl)phenyl)furo[2,3-d]pyrimidine [Example 153] | ++ (++ = pIC50 of 6.0–7.0) | ++ (++ = pIC50 of 6.0–7.0) | – | – | – | – | + (+ = pIC50 of 5.0–6.0) | –
4 | 4-Amino-3-(4-methoxyphenyl)-2-(3-(N-(4-pyridyl)carbamoyl)-phenyl)furo[2,3-d]pyrimidine [Example 108] | ++ (++ = pIC50 of 6.0–7.0) | ++ (++ = pIC50 of 6.0–7.0) | – | – | – | – | + (+ = pIC50 of 5.0–6.0) | –
5 | 4-Amino-3-(4-methoxyphenyl)-2-(3-sulfamoylphenyl)furo[2,3-d]pyrimidine [Example 165] | ++ (++ = pIC50 of 6.0–7.0) | ++ (++ = pIC50 of 6.0–7.0) | +++ (+++ = pIC50 of >7.0) | – | – | – | + (+ = pIC50 of 5.0–6.0) | –
6 | COc1ccc(-c2oc3ncnc(N)c3c2-c2ccc(NC(=O)Nc3cc(C(F)(F)F)ccc3F)cc2)cc1 [Example 4] | – | – | – | < 100 nM | < 100 nM | < 100 nM | – | < 100 nM

The next lines start with results.

Row | TIE2-E pIC50 [1] | TIE2-C pIC50 [2] | VEGF-E pIC50 (GST-VEGFR2) | IC50 [1] | IC50 [2] | IC50 (GST-VEGFR2) | Compound | VEGF-C pIC50 [3] | IC50 [3]
7 | ++ (++ = pIC50 of 6.0–7.0) | ++ (++ = pIC50 of 6.0–7.0) | +++ (+++ = pIC50 of >7.0) | – | – | – | 4-Amino-3-(4-(2-pyridyl)phenyl)-2-(3-sulfamoylphenyl)furo[2,3-d]pyrimidine [Example 206] | + (+ = pIC50 of 5.0–6.0) | –
8 | ++ (++ = pIC50 of 6.0–7.0) | ++ (++ = pIC50 of 6.0–7.0) | – | – | – | – | 4-Amino-3-(4-(4-tert-butylphenyl)phenyl)-2-(3-sulfamoylphenyl)-furo[2,3-d]pyrimidine [Example 204] | + (+ = pIC50 of 5.0–6.0) | –
9 | – | – | – | < 100 nM | < 100 nM | < 100 nM | Nc1ncnc2occ(-c3ccc(NC(=O)Nc4cc(C(F)(F)F)ccc4F)cc3)c12 [232 (8C), 4-Amino-3-(4-((2-fluoro-5-(trifluoromethyl)phenyl)-aminocarbonylamino)phenyl)furo[2,3-d]pyrimidine] | – | < 100 nM
10 | – | – | – | 100 to 1000 nM | 100 to 1000 nM | < 100 nM | Nc1ncnc2oc(-c3cccc(S(N)(=O)=O)c3)c(-c3ccc(-c4cccc(F)c4F)cc3)c12 [Example 5] | – | 1000 to 10000 nM
11 | – | – | – | < 100 nM | < 100 nM | < 100 nM | N#Cc1cccc(-c2oc3ncnc(N)c3c2-c2ccc(NC(=O)Nc3cc(C(F)(F)F)ccc3F)cc2)c1 [Example 8] | – | < 100 nM
